On the set-up of series [1]: method as in PMID 25681129. As to conditions: cited from earlier work.
For series [2] the following is noted: cited from earlier work.
Details of series [3]: method as in doi:10.1055/s-2006-959976. To be noted: added to whole blood; cited from earlier work.
Series [4] in a line: Allicin bioavailability or bioequivalence bioassay: 32-h breath allyl methyl sulfide (AMS) concentration curve after consumption. It is filed as in vivo, human. To be noted: two tests, same person.

Some results are limits rather than exact numbers.

`C=CCSCC(N)C(=O)O` (stereo not shown) [S-allyl-cysteine, S-allylcysteine]: in series [1], the “Administered dose accounted for among the urinary metabolites” value is listed as 13%, the “Dose in urine as SAC plus N-acetyl-SAC” value was 1%, the “Dose in urine as alliin plus N-acetyl-alliin” value is listed as 12% and the Unknown metabolites is 87%.

`C=CCS[S+]([O-])CC=C` (stereo not shown) [allicin, diallyl thiosulfinate]: in series [2], the “Share of the allicin consumed accounted for by breath AMS” value is given as “at least 90%”. Also, in series [3], the “Half-life of metabolism to allyl mercaptan” value is recorded as under 1 min.

For `C=CC[S+]([O-])C[C@H](N)C(=O)O` (mixture of isomers) [L(±)-alliin], the “Differences in Tmax, RF2, or RRF2 versus natural L(+)-alliin” value in series [4] was “No significant differences”.

Source of the values: paper PMC6073756, “Allicin Bioavailability and Bioequivalence from Garlic Supplements and Garlic Foods” (Nutrients, 2018).
